Measurements as given in article PMC6271338, “Synthesis and Cytotoxic Evaluation of Alkoxylated Chalcones” (Molecules, 2014).

How the values were obtained:
[1] = test system: HepG2 cells; assay: In vitro anti-proliferative SRB assay, HepG2; format: cell-based, human; conditions: for IC50: Homo sapiens, HepG2, increasing concentrations up to 30 μM, mean ± SD of at least three independent experiments; for SI (CC50 HMLE/IC50 HepG2) / SI (CC50 L02/IC50 HepG2): selectivity index; for SI (CC50 HMLE/IC50 HepG2): HMLE vs HepG2; for SI (CC50 L02/IC50 HepG2): L02 vs HepG2
[2] = Cytotoxicity (SRB) against non-tumoral L02 cells; format: cell-based, human; conditions: human, L02 cells (non-tumoral human liver cell line); increasing concentrations up to 100 μM; mean ± SD of at least three independent experiments; read-out: Normal Human Cell Lines, CC50, L02
[3] = test system: HeLa cells; assay: In vitro anti-proliferative SRB assay, HeLa; format: cell-based, human; conditions: for IC50: Homo sapiens, HeLa, increasing concentrations up to 30 μM, mean ± SD of at least three independent experiments; for SI (CC50 HMLE/IC50 Hela) / SI (CC50 L02/IC50 Hela): selectivity index; for SI (CC50 HMLE/IC50 Hela): HMLE vs HeLa; for SI (CC50 L02/IC50 Hela): L02 vs HeLa
[4] = test system: A549 cells; assay: In vitro anti-proliferative SRB assay, A549; format: cell-based, human; conditions: for IC50: Homo sapiens, A549, increasing concentrations up to 30 μM, mean ± SD of at least three independent experiments; for SI (CC50 HMLE/IC50 A549) / SI (CC50 L02/IC50 A549): selectivity index; for SI (CC50 HMLE/IC50 A549): HMLE vs A549; for SI (CC50 L02/IC50 A549): L02 vs A549
[5] = Cytotoxicity (SRB) against non-tumoral HMLE cells; format: cell-based, human; conditions: human, HMLE cells (non-tumoral human mammary epithelial cells); increasing concentrations up to 100 μM; mean ± SD of at least three independent experiments; read-out: Normal Human Cell Lines, CC50, HMLE
[6] = test system: MCF-7 cells; assay: In vitro anti-proliferative SRB assay, MCF-7; format: cell-based, human; conditions: for IC50: Homo sapiens, MCF7, increasing concentrations up to 30 μM, mean ± SD of at least three independent experiments; for SI (CC50 HMLE/IC50 MCF7) / SI (CC50 L02/IC50 MCF7): selectivity index; for SI (CC50 HMLE/IC50 MCF7): HMLE vs MCF7; for SI (CC50 L02/IC50 MCF7): L02 vs MCF7
[7] = test system: SW1990 cells; assay: In vitro anti-proliferative SRB assay, SW1990; format: cell-based, human; conditions: for IC50: Homo sapiens, SW1990, increasing concentrations up to 30 μM, mean ± SD of at least three independent experiments; for SI (CC50 HMLE/IC50 SW1990) / SI (CC50 L02/IC50 SW1990): selectivity index; for SI (CC50 HMLE/IC50 SW1990): HMLE vs SW1990; for SI (CC50 L02/IC50 SW1990): L02 vs SW1990

SMILES	IC50 [1] [µM]	SI (CC50 HMLE/IC50 HepG2) [1]	SI (CC50 L02/IC50 HepG2) [1]	CC50 at 48 h [2] [µM]	IC50 [3] [µM]	SI (CC50 HMLE/IC50 Hela) [3]	SI (CC50 L02/IC50 Hela) [3]	melting point [°C]	IC50 [4] [µM]	SI (CC50 HMLE/IC50 A549) [4]	SI (CC50 L02/IC50 A549) [4]	CC50 at 48 h [5] [µM]	IC50 [6] [µM]	SI (CC50 HMLE/IC50 MCF7) [6]	SI (CC50 L02/IC50 MCF7) [6]	IC50 [7] [µM]	SI (CC50 HMLE/IC50 SW1990) [7]	SI (CC50 L02/IC50 SW1990) [7]
COc1cccc(OC)c1/C=C/C(=O)c1ccc2c(c1)CCO2 [b21, (E)-1-(2,3-Dihydrobenzofuran-5-yl)-3-(2,6-dimethoxyphenyl)prop-2-en-1-one]	17.3 ± 0.23	0.8	3.3	57.5 ± 13.6	21.6 ± 0.43	0.7	2.7	118.8 to 120.2	22.3 ± 0.99	0.7	2.6	14.6 ± 0.81	22.6 ± 2.1	0.6	2.5	24.4 ± 0.6	0.6	2.4
COc1cccc(OC)c1/C=C/C(=O)c1ccccc1O [b24, (E)-1-(2-Hydroxyphenyl)-3-(2,6-dimethoxyphenyl)prop-2-en-1-one]	7.77 ± 0.08	1.2	3.1	24.2 ± 2.71	13.4 ± 0.74	0.7	1.8	114.2 to 115.9	8.64 ± 0.31	1.0	2.8	8.96 ± 0.44	10.7 ± 0.38	0.8	2.3	16.1 ± 0.32	0.6	1.5
COc1cccc(OC)c1/C=C/C(=O)c1cccc(O)c1 [b25, (E)-1-(3-Hydroxyphenyl)-3-(2,6-dimethoxyphenyl)prop-2-en-1-one]	7.27 ± 0.13	0.9	2.7	19.6 ± 1.29	9.56 ± 0.33	0.7	2.1	138.1 to 139.7	12.7 ± 0.28	0.5	1.5	6.31 ± 0.13	8.92 ± 0.25	0.7	2.2	21 ± 0.43	0.3	0.9
COc1cccc(OC)c1/C=C/C(=O)c1ccc(O)cc1 [b26, (E)-1-(4-Hydroxyphenyl)-3-(2,6-dimethoxyphenyl)prop-2-en-1-one]	14.4 ± 0.81	0.9	2.0	28.2 ± 1.69	12.7 ± 0.81	1.0	2.2	189.6 to 191.4	23.8 ± 1.56	0.5	1.2	12.6 ± 2.82	20.2 ± 0.3	0.6	1.4	20.8 ± 0.54	0.6	1.4
COc1ccc(C(=O)/C=C/c2c(OC)cccc2OC)c(O)c1 [b28, (E)-1-(2-Hydroxy-4-methoxyphenyl)-3-(2,6-dimethoxyphenyl)prop-2-en-1-one]	19.5 ± 0.79	0.8	>5.1	> 100	17 ± 0.65	1.0	>5.9	143.5 to 144.7	17.4 ± 0.97	0.9	>5.8	16.2 ± 2.48	28.4 ± 1.25	0.6	>3.5	28.3 ± 0.26	0.6	>3.5
COc1cccc(OC)c1/C=C/C(=O)c1cccc(F)c1 [b32, (E)-1-(3-Fluorophenyl)-3-(2,6-dimethoxyphenyl)prop-2-en-1-one]	21.6 ± 0.97	0.6	3.3	72 ± 12.1	20.7 ± 0.78	0.6	3.5	105.4 to 107.3	27.2 ± 1.39	0.4	2.7	11.9 ± 1.28	25.5 ± 0.78	0.5	2.8	28.38 ± 0.27	0.4	2.5
COc1cccc(OC)c1/C=C/C(=O)c1ccc(F)cc1 [b33, (E)-1-(4-Fluorophenyl)-3-(2,6-dimethoxyphenyl)prop-2-en-1-one]	24.6 ± 0.36	0.5	2.6	63.9 ± 13.8	17.4 ± 0.39	0.7	3.7	108.2 to 109.6	> 30	<0.4	<2.1	12.7 ± 2.35	32.2 ± 1.34	0.4	2.0	> 30	<0.4	<2.1
COc1cccc(OC)c1/C=C/C(=O)c1ccc(Cl)cc1 [b35, (E)-1-(4-Chlorophenyl)-3-(2,6-dimethoxyphenyl)prop-2-en-1-one]	27.1 ± 0.88	0.7	3.2	85.4 ± 6.86	18.4 ± 0.06	1.0	4.6	107.9 to 109.7	> 30	<0.6	<2.8	17.7 ± 1.35	29.8 ± 0.8	0.6	2.9	> 30	<0.6	<2.8
COc1cccc(OC)c1/C=C/C(=O)c1cccc(Br)c1 [b36, (E)-1-(3-Bromophenyl)-3-(2,6-dimethoxyphenyl)prop-2-en-1-one]	11.3 ± 1.45	1.2	5.4	61.2 ± 12.1	13.4 ± 0.44	1.0	4.6	135.7 to 138.2	25 ± 3.17	0.5	2.4	13.1 ± 1.21	23.3 ± 0.79	0.6	2.6	17.1 ± 0.57	0.8	3.6
